Laboratory results: patent publication US20080070987A1, “META-XYLYLENEDIAMINE VANADATE SALTS” (priority 2006, published 2008)

Key:
[1] = test system: protein kinase B / insulin receptor phosphorylation; experiment: Intracellular insulin signalling in isolated rat adipocytes (protein kinase B and insulin receptor phosphorylation); type: cell-based, Wistar rats
Procedure: Isolated fat cells were disrupted for total membrane preparation by hypo-osmotic lysis in a 20 mM HES buffer and an antiprotease and antiphosphatase cocktail as reported by Abella et al. (2003, Diabetes 52: 1004-1013). Protein concentrations were determined by the Bradford method (Bradford, 1976, Anal. Biochem. 72: 248-254) with gamma-globulin as protein concentration standard. Immunoprecipitation and immunoblot assays were performed as previously described by Abella et al. (2004, Diabetologia 47: 429-438) with the use of a monoclonal antiphosphotyrosine antibody for the immunoprecipitation and an anti-insulin receptor antibody for immunobloting, respectively. SDS-polyacrylamide gel electrophoresis was performed on membrane proteins following conventional procedures. Proteins were transferred to Immobilon and immunoblotting was performed as reported by Castello et al. (1994, J. Biol. Chem. 269: 5905-5912).
The mechanism of action of B6V10 was investigated in isolated rat adipocytes. Adipose cells from Wistar rats were incubated for different times in the presence of 25 μM hexaquis(benzylammonium) decavanadate (B6V10). Cells were also incubated in the presence of insulin (100 nM, 45 min), decavanadate (25 μM, 45 min) or semicarbazide (1 mM, 45 min). Subsequently, 2-deoxyglucose uptake (results shown in FIG. 7A), tyrosine phosphorylation of insulin receptor (FIG. 7B), phospho-Thr^308-protein kinase B (FIG. 7C) and phospho-Ser^473-protein kinase B (FIG. 7D) was measured. […] The phosphorylation of protein kinase B induced by B6V10 was parallel to activation of glucose transport (FIGS. 7C and 7D).
The effects of incubation with semicarbazide or phosphatidylinositol 3-kinase inhibitors were also investigated. Adipose cells were incubated with B6V10 (25 μM, 45 min) in the absence or presence of wortmannin (2 μM, 45 min), LY294002 (10 μM, 45 min) or semicarbazide (1 mM, 45 min) and thereafter 2-deoxyglucose uptake was determined during 5 min.

[2] = test system: streptozotocin-induced diabetic rats; type: in vivo, rat; details: for effect on glycemia / circulating glucose, in words: 2.5 μmol/kg subcutaneous minipumps
Procedure: Male Wistar rats weighting 180-220 g were purchased from Harlan (Interfauna Ibérica S.A., Spain). Diabetes was induced by a single intraperitoneal injection of a freshly prepared solution of streptozotocin (in some studies the dose was 45 mg/kg body weight and in some others 100 mg/kg body weight dissolved in 50 mM citrate buffer, pH 4.5). Only diabetic animals with glycemia above 300 mg/dl were used. The animals were housed in animal quarters at 22° C. with a 12 h light/12 h dark cycle and were fed ad libitum. All procedures used were approved by the animal ethical committee of the University of Barcelona, Spain. Male mice C57 BL/Ks bearing the db/db mutation (Jackson Laboratories, Bar Harbor, Me.) were purchased from Harlan France (Gannat, France). C57BL/6J male mice were assigned for 16 weeks to very high-fat diet containing (in kcal): 72% from fat, 28% from proteins and <1% from carbohydrates (Burcelin et al., 2002, Am. J. Physiol. Endocrinol. Metab 282: E834-E842).
Osmotic minipumps delivering B6V10 (2.5 μmol/kg body wt/day) or decavanadate (2.5 μmol/kg body wt/day) were implanted subcutaneously in diabetic rats anaesthetised by ketamine hydrochloride (95 mg/kg) and xylasine (10 mg/kg). […] Glycemia was measured on arterio-venous blood collected from the tail vessels at 09:00 am for two weeks, before the administration of vanadate. Insulin concentrations were determined before and after treatment. In another set of experiments, B6V10 was orally administered at a single dose of 5 μmol/kg/day during the first week and 10 μmol/kg/day during 2 additional weeks by gastric gavage. A control group received the corresponding decavanadate salt in the absence of benzylamine. At the end of the treatment, animals were sacrificed and the liver, fat pad, heart and lung were kept at −80° C. and the plasma at −20° C. until their use for in vitro analysis.
In glucose tolerance tests and in chronic treatments, circulating glucose concentrations were determined by a rapid glucose analyser (Accutrend® Sensor Comfort, Roche, Basel. Switzerland). Plasma insulin (IRI) concentration was determined by ELISA method using a kit obtained from Crystal Chem. Inc. (Downers Grove, Ill.). Plasma triglycerides (Biosystems, Barcelona, Spain) and NEFAS (Wako Chemicals, Neuss, Germany) were determined with standard […] methods.
To this end, rats were made diabetic by the injection of a large dose of streptozotocin (100 mg/kg) that eliminates β-pancreatic insulin content. […] These streptozotocin-induced diabetic rats were subcutaneously treated with B6V10 (2.5 μmol/kg) (solid squares, FIG. 9A) delivered by osmotic minipumps or left untreated (solid circles, FIG. 9A). Sham-operated nondiabetic rats were also untreated (solid triangles, FIG. 9A).
The concentration of circulating glucose under these conditions was also assayed. After 28 days of treating diabetic rats with hexaquis(benzylammonium) decavanadate (2.5 μmol/kg) (wide striped bars, FIG. 9B), or with decavanadate (close striped bars, FIG. 9B) delivered by osmotic minipumps, plasma insulin and glucose were measured. Untreated diabetic (solid bars, FIG. 9B) or nondiabetic rats (open bars, FIG. 9B) were similarly assayed as controls.

[3] = streptozotocin 100 mg/kg, 2.5 μmol/kg minipumps, 28 days

Row | Substance | effect of semicarbazide on protein kinase B phosphorylation induced by the compound ([1]; 1 mM semicarbazide, 45 min) | earliest time at which protein kinase B phosphorylation was detectable ([1]; isolated rat adipocytes, 25 μM) | phosphorylation (activation) of protein kinase B, in words ([1]; isolated rat adipocytes, 25 μM) | tyrosine phosphorylation of insulin receptors ([1]; isolated rat adipocytes, 25 μM) | effect on body weight or organ weights ([2]; rat, in vivo) | plasma glucose after 28 days of treatment [2, 3] | plasma insulin after 28 days of treatment [2, 3] | effect on glycemia / circulating glucose, in words ([2]; streptozotocin 100 mg/kg)
1 | hexaquis(benzylammonium) decavanadate [Example B6V10] | blocked by semicarbazide | 2.5 min | rapidly stimulated protein kinase B | undetectable | did not affect body weight or organ weights | plasma glucose was reduced | without any observable change in the amount of insulin | reducing glycemia
2 | sodium decavanadate [Example V10, reference compound] |  |  | not observed |  |  |  |  | did not show any change in circulating glucose
